Results taken from patent US8372863B2, “Tetrahydro-1H-pyrrolo fused pyridones” (Merck Sharp & Dohme Corp., priority 2008, dated 2013).
Counter-ions that a name gives are not always drawn.

Each compound was assayed against PHD2 (Homo sapiens, UniProt Q9GZT9) (assay: PHD2 / HIF-1α peptide hydroxylation assay with time resolved fluorescence readout (PHD2 binding activity)). Conditions: FLAG-tagged full length PHD2; 0.2 μM 2-oxoglutarate, 0.5 μM HIF-1α peptide; read-out: PHD2 Activity (PHD2 binding activity expressed as IC50).
Sequence of PHD2 (Q9GZT9 whole entry): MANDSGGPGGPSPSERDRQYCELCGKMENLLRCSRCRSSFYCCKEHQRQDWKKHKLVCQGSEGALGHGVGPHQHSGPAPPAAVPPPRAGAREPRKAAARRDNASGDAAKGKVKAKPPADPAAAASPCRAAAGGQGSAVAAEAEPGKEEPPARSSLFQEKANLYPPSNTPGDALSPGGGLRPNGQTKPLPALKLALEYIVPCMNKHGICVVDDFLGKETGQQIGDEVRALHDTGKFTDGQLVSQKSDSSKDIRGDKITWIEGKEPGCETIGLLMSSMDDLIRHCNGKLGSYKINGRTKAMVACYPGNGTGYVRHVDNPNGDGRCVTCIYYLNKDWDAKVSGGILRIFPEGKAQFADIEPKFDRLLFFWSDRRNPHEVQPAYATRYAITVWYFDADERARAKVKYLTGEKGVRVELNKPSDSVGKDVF
Type: biochemical
Experimental: After a 30 min preincubation at room temperature, the enzymatic reactions were initiated by the addition of 4 μL of substrates (final concentrations of 0.2 μM 2-oxoglutarate and 0.5 μM HIF-1α peptide biotinyl-DLDLEMLAPYIPMDDDFQL). After 2 hr at room temperature, the reactions were terminated and signals were developed by the addition of a 25 μL quench/detection mix to a final concentration of 1 mM ortho-phenanthroline, 0.1 mM EDTA, 0.5 nM anti-(His)6 LANCE reagent (Perkin-Elmer Life Sciences), 100 nM AF647-labeled streptavidin (Invitrogen), and 2 μg/ml (His)6-VHL complex (S. Tan(2001) Protein Expr. Purif 21, 224-234). The ratio of time resolved fluorescence signals at 665 and 620 nm was determined, and percent inhibition was calculated relative to an uninhibited control sample run in parallel.
In the case of `C=CCCC(=O)N1Cc2c(O)c(C(=O)NCC(=O)O)c(=O)n(Cc3cccc(-c4ccccc4)c3)c2C1` [Example 43, N-{[1-(biphenyl-3-ylmethyl)-4-hydroxy-2-oxo-6-pent-4-enoyl-2,5,6,7-tetrahydro-1H-pyrrolo[3,4-b]pyridin-3-yl]carbonyl}glycine], the IC50 is reported as less than 10 nM.
Compound `O=C(O)CNC(=O)c1c(O)c2c(n(Cc3cccc(-c4ccccc4)c3)c1=O)CN(C(=O)c1cscn1)C2` [Example 44, N-{[1-(biphenyl-3-ylmethyl)-4-hydroxy-2-oxo-6-(1,3-thiazol-4-ylcarbonyl)-2,5,6,7-tetrahydro-1H-pyrrolo[3,4-b]pyridin-3-yl]carbonyl}glycine] has an IC50 of less than 10 nM.
Compound `O=C(O)CNC(=O)c1c(O)c2c(n(Cc3cccc(-c4ccc(Cl)cc4)c3)c1=O)CN(C(=O)c1cscn1)C2` [Example 45, N-{[1-[(4′-chlorobiphenyl-3-yl)methyl]-4-hydroxy-2-oxo-6-(1,3-thiazol-4-ylcarbonyl)-2,5,6,7-tetrahydro-1H-pyrrolo[3,4-b]pyridin-3-yl]carbonyl}glycine] has an IC50 of less than 10 nM.
For `O=C(O)CNC(=O)c1c(O)c2c(n(Cc3cccc(-c4cncnc4)c3)c1=O)CN(C(=O)c1cscn1)C2` [Example 46, N-{[4-hydroxy-2-oxo-1-(3-pyrimidin-5-ylbenzyl)-6-(1,3-thiazol-4-ylcarbonyl)-2,5,6,7-tetrahydro-1H-pyrrolo[3,4-b]pyridin-3-yl]carbonyl}glycine], the IC50 was less than 10 nM.
`O=C(O)CNC(=O)c1c(O)c2c(n(Cc3cccc(-c4ccccc4Cl)c3)c1=O)CN(C(=O)c1cscn1)C2` [Example 47, N-{[1-[(2′-chlorobiphenyl-3-yl)methyl]-4-hydroxy-2-oxo-6-(1,3-thiazol-4-ylcarbonyl)-2,5,6,7-tetrahydro-1H-pyrrolo[3,4-b]pyridin-3-yl]carbonyl}glycine] gave an IC50 of less than 10 nM.
With `C=CCCC(=O)N1Cc2c(O)c(C(=O)NCC(=O)O)c(=O)n(Cc3ccc(-c4ccccc4)cc3)c2C1C` (stereo not shown) [Example 48, N-{[1-(biphenyl-4-ylmethyl)-4-hydroxy-7-methyl-2-oxo-6-pent-4-enoyl-2,5,6,7-tetrahydro-1H-pyrrolo[3,4-b]pyridin-3-yl]carbonyl}glycine] the IC50 was less than 10 nM.
Work on `O=C(O)CNC(=O)c1c(O)c2c(n(Cc3ccccc3-c3ccccc3)c1=O)CN(C(=O)c1cscn1)C2` [Example 49, N-{[1-(biphenyl-2-ylmethyl)-4-hydroxy-2-oxo-6-(1,3-thiazol-4-ylcarbonyl)-2,5,6,7-tetrahydro-1H-pyrrolo[3,4-b]pyridin-3-yl]carbonyl}glycine] yielded an IC50 of less than 10 nM.
For `O=C(O)CNC(=O)c1c(O)c2c(n(Cc3cccc(-c4cccc(Cl)c4)c3)c1=O)CN(C(=O)c1cscn1)C2` [Example 50, N-{[1-[(3′-chlorobiphenyl-3-yl)methyl]-4-hydroxy-2-oxo-6-(1,3-thiazol-4-ylcarbonyl)-2,5,6,7-tetrahydro-1H-pyrrolo[3,4-b]pyridin-3-yl]carbonyl}glycine], the IC50 was less than 10 nM.
`O=C(O)CNC(=O)c1c(O)c2c(n(Cc3cccc(-c4ccncc4)c3)c1=O)CN(C(=O)c1cscn1)C2` [Example 51, N-{[4-hydroxy-2-oxo-1-(3-pyridin-4-ylbenzyl)-6-(1,3-thiazol-3-ium-4-ylcarbonyl)-2,5,6,7-tetrahydro-1H-pyrrolo[3,4-b]pyridin-3-yl]carbonyl}glycine trifluoroacetate] was tested, and the IC50 was less than 10 nM.
Work on `O=C(O)CNC(=O)c1c(O)c2c(n(Cc3cccc(-c4cccnc4)c3)c1=O)CN(C(=O)c1cscn1)C2` [Example 52, N-{[4-hydroxy-2-oxo-1-(3-pyridin-3-ylbenzyl)-6-(1,3-thiazol-3-ium-4-ylcarbonyl)-2,5,6,7-tetrahydro-1H-pyrrolo[3,4-b]pyridin-3-yl]carbonyl}glycine trifluoroacetate] yielded an IC50 of less than 10 nM.
Work on `O=C(O)CNC(=O)c1c(O)c2c(n(Cc3cccc(-c4ccc(F)nc4)c3)c1=O)CN(C(=O)c1cscn1)C2` [Example 53, N-{[1-[3-(6-fluoropyridin-3-yl)benzyl]-4-hydroxy-2-oxo-6-(1,3-thiazo1-4-ylcarbonyl)-2,5,6,7-tetrahydro-1H-pyrrolo[3,4-b]pyridin-3-yl]carbonyl}glycine] yielded an IC50 of less than 10 nM.
Work on `O=C(O)CNC(=O)c1c(O)c2c(n(Cc3ccccc3)c1=O)CN(C(=O)c1cscn1)C2` [Example 54, N-{[1-benzyl-4-hydroxy-2-oxo-6-(1,3-thiazol-4-ylcarbonyl)-2,5,6,7-tetrahydro-1H-pyrrolo[3,4-b]pyridin-3-yl]carbonyl}glycine] yielded an IC50 of less than 10 nM.
In the case of `N#Cc1ccccc1Cn1c2c(c(O)c(C(=O)NCC(=O)O)c1=O)CN(C(=O)c1cscn1)C2` [Example 56, N-{[1-(2-cyanobenzyl)-4-hydroxy-2-oxo-6-(1,3-thiazol-4-ylcarbonyl)-2,5,6,7-tetrahydro-1H-pyrrolo[3,4-b]pyridin-3-yl]carbonyl}glycine], the IC50 is reported as less than 10 nM.
